For one test, the target named is T1, F1F0-ATPase (Bos taurus, UniProt P13621).
T1 construct: from tissue; host or cells: bovine sub-mitochondrial particles (SMPs)
Description: Inhibition of ATP synthesis and hydrolysis by the F1F0-ATPase. It is filed as biochemical. The method, then: (§1) The compounds listed in Table 4 were tested for activity against F1F0-ATPase and cytotoxicity in Ramos cells. Inhibition of ATP synthesis and hydrolysis by the F1F0-ATPase was measured as described in K. M. Johnson et al., Chemistry & Biology 2005, 12, 485-496. Cytotoxicity in Ramos cells was measured as described in K. M. Johnson et al., Chemistry & Biology 2005, 12, 485-496, or using the alamarBlue™ Assay with fluorescence detection (U.S. Pat. No. 5,501,959) as supplied and described by Invitrogen (Carlsbad, Calif.).

The next test deals with Ramos cells. Description: Cytotoxicity in Ramos cells. It is filed as cell-based. The conditions noted are these: Homo sapiens, read-out: Ramos Cell EC50. The method, then: as §1

Like-named read-outs stand apart in the source and are kept apart here.

As a reminder, the IC50 is the concentration needed to halve the response being measured. As a reminder, the EC50 is the concentration at which the effect is half-maximal. In the case of `CCc1ccccc1CC1N=C(c2ccc(O)cc2)c2cc(Cl)ccc2NC1=O` (stereo not drawn) [Compound 23, (Z)-7-chloro-3-(2-ethylbenzyl)-5-(4-hydroxyphenyl)-1H-benzo[e][1,4]diazepin-2(3H)-one], the IC50 against F1F0-ATPase is 5 to 10 µM. Moreover, the EC50 in the test with Ramos cells (cytotoxicity in Ramos cells) lay in the range of 5 to 10 µM.

Take `CN(C)CCNC(=O)Nc1ccc(C2=NC(Cc3ccccc3Cl)C(=O)Nc3ccc(Cl)cc32)cc1` (stereo not drawn) [Compound 6, (Z)-1-(4-(7-chloro-3-(2-chlorobenzyl)-2-oxo-2,3-dihydro-1H-benzo[e][1,4]diazepin-5-yl)phenyl)-3-(2-(dimethylamino)ethyl)urea]: the IC50 at F1F0-ATPase (read-out: ATPase IC50) was > 10 µM. In addition, the EC50 in the test on Ramos cells (cytotoxicity in Ramos cells) is < 5 µM.

Take `CC(C)c1cccc(CC2N=C(c3ccc(O)cc3)c3cc(Cl)ccc3N(C)C2=O)c1` (stereo not drawn) [Compound 29, (Z)-7-chloro-5-(4-hydroxyphenyl)-3-(3-isopropylbenzyl)-1-methyl-1H-benzo[e][1,4]diazepin-2(3H)-one]: the IC50 on F1F0-ATPase lay in the range of 5 to 10 µM. For the same compound, in the test with Ramos cells (cytotoxicity in Ramos cells), the EC50 was 5 to 10 µM.

As to `CC(C)NC(=O)Nc1ccc(C2=NC(Cc3ccccc3C(F)(F)F)C(=O)Nc3ccc(Cl)cc32)cc1` (stereo not drawn) [Compound 2, (Z)-1-(4-(7-chloro-2-oxo-3-(2-(trifluoromethyl)benzyl)-2,3-dihydro-1H-benzo[e][1,4]diazepin-5-yl)phenyl)-3-isopropylurea], the IC50 on F1F0-ATPase (read-out: ATPase IC50) lay in the range of 5 to 10 µM. For the same compound, the EC50 in the test with Ramos cells (cytotoxicity in Ramos cells) is < 5 µM.

Regarding `Cc1cccc(CC2N=C(c3ccc(O)cc3)c3cc(Cl)ccc3N(C)C2=O)c1` (stereo not drawn) [Compound 20, (Z)-7-chloro-5-(4-hydroxyphenyl)-1-methyl-3-(3-methylbenzyl)-1H-benzo[e][1,4]diazepin-2(3H)-one], the IC50 against F1F0-ATPase was > 10 µM. Moreover, the EC50 in the test with Ramos cells (cytotoxicity in Ramos cells) is > 10 µM.

`Cc1ccc(CC2N=C(c3ccc(O)cc3)c3cc(Cl)ccc3NC2=O)cc1` (stereo not drawn) [Compound 21, (Z)-7-chloro-5-(4-hydroxyphenyl)-3-(4-methylbenzyl)-1H-benzo[e][1,4]diazepin-2(3H)-one]: the IC50 against F1F0-ATPase lay in the range of 5 to 10 µM. Besides, the EC50 in the test on Ramos cells (Ramos) lay within 5 to 10 µM.

Consider `Cc1cccc(CC2N=C(c3ccc(O)cc3)c3cc(Cl)ccc3NC2=O)c1` (stereo not drawn) [Compound 19, (Z)-7-chloro-5-(4-hydroxyphenyl)-3-(3-methylbenzyl)-1H-benzo[e][1,4]diazepin-2(3H)-one], for which the IC50 against F1F0-ATPase lay in the range of 5 to 10 µM. Further, the EC50 with Ramos cells (Ramos) was 5 to 10 µM.

For the compound `CNC(=O)Nc1ccc(C2=NC(Cc3ccccc3Cl)C(=O)Nc3ccc(Cl)cc32)cc1` (stereo not drawn) [Compound 5, (Z)-1-(4-(7-chloro-3-(2-chlorobenzyl)-2-oxo-2,3-dihydro-1H-benzo[e][1,4]diazepin-5-yl)phenyl)-3-methylurea], the IC50 at F1F0-ATPase lay in the range of 5 to 10 µM. The EC50 with Ramos cells (cytotoxicity in Ramos cells) fell in the range of 5 to 10 µM.

On to `CCOCCNC(=O)Nc1ccc(C2=NC(Cc3ccccc3Br)C(=O)Nc3ccc(Cl)cc32)cc1` (stereo not drawn) [Compound 16, (Z)-1-(4-(3-(2-bromobenzyl)-7-chloro-2-oxo-2,3-dihydro-1H-benzo[e][1,4]diazepin-5-yl)phenyl)-3-(2-ethoxyethyl)urea], for which the IC50 at F1F0-ATPase (read-out: ATPase IC50) fell in the range of 5 to 10 µM. Further, the EC50 with Ramos cells (cytotoxicity in Ramos cells) was < 5 µM.

Consider `CCc1ccccc1CC1N=C(c2ccc(O)cc2)c2cc(Cl)ccc2N(C)C1=O` (stereo not drawn) [Compound 24, (Z)-7-chloro-3-(2-ethylbenzyl)-5-(4-hydroxyphenyl)-1-methyl-1H-benzo[e][1,4]diazepin-2(3H)-one], for which the IC50 on F1F0-ATPase was 5 to 10 µM. Moreover, the EC50 in the test on Ramos cells (cytotoxicity in Ramos cells) is > 10 µM.

Turning to `CN1C(=O)C(Cc2ccccc2C(F)(F)F)N=C(c2ccc(O)cc2)c2cc(Cl)ccc21` (stereo not drawn) [Compound 32, (Z)-7-chloro-5-(4-hydroxyphenyl)-1-methyl-3-(2-(trifluoromethyl)benzyl)-1H-benzo[e][1,4]diazepin-2(3H)-one], at F1F0-ATPase, the IC50 is 5 to 10 µM. Also, the EC50 in the test with Ramos cells (cytotoxicity in Ramos cells) lay within 5 to 10 µM.

At F1F0-ATPase, `CC(C)c1ccc(CC2N=C(c3ccc(O)cc3)c3cc(Cl)ccc3NC2=O)cc1` (stereo not drawn) [Compound 30, (Z)-7-chloro-5-(4-hydroxyphenyl)-3-(4-isopropylbenzyl)-1H-benzo[e][1,4]diazepin-2(3H)-one] came in with an IC50 of 5 to 10 µM. Also, the EC50 with Ramos cells (cytotoxicity in Ramos cells) is 5 to 10 µM.

The values are drawn from US8242109B2, “Compositions and methods relating to novel compounds and targets thereof” (priority 2007, dated 2012).
